Where “and” joins values, the source holds several entries; their conditions need not be identical. Equal entries are not always repeated.
Tests used:
[1] = Colorimetric alkylation rate constant assay with thiol N1; assay type: physicochemical; details: for remaining [A]: N1 from calibration curve (N1 in uM); for remaining [A] / remaining [B]: in µM
[2] = Colorimetric alkylation rate constant assay with TNB^2− as non-specific thiol; assay type: physicochemical; parameters: second-order: unit not given here; details: for remaining [B]: in µM
[3] = Time 2891 sec, [B]0 = 250, Replicates 1-3
[4] = Time 3071 sec, [B]0 = 250, Replicates 1-3
[5] = Time 3252 sec, [B]0 = 250, Replicates 1-3
[6] = Time 3433 sec, [B]0 = 250, Replicates 1-3
[7] = Time 3613 sec, [B]0 = 250, Replicates 1-3

C=CS(=O)(=O)Nc1cc2cc(C(=O)CCC(=O)O)sc2cc1OC [Compound E1]
remaining [A] ([1]; Replicate 1, time 576 sec): 47.8044
remaining [B] ([1]; Replicate 1, time 576 sec, [B]0 = 250): 193.684
second-order ([1]; Replicate 1, time 576 sec, second-order plot value): 0.003586
remaining [A] ([1]; Replicate 1, time 606 sec): 46.4649
remaining [B] ([1]; Replicate 1, time 606 sec, [B]0 = 250): 192.345
second-order ([1]; Replicate 1, time 606 sec, second-order plot value): 0.003734
remaining [A] ([1]; Replicate 2, time 576 sec): 30.5226
remaining [B] ([1]; Replicate 2, time 576 sec, [B]0=250): 177.381
second-order ([1]; Replicate 2, time 576 sec, second-order plot value): 0.005955
remaining [A] ([1]; Replicate 2, time 606 sec): 29.3038
remaining [B] ([1]; Replicate 2, time 606 sec, [B]0=250): 176.162
second-order ([1]; Replicate 2, time 606 sec, second-order plot value): 0.006185
remaining [A] ([1]; Replicate 3, time 576 sec): 37.5866
remaining [B] ([1]; Replicate 3, time 576 sec, [B]0=250): 183.039
second-order ([1]; Replicate 3, time 576 sec, second-order plot value): 0.00489
remaining [A] ([1]; Replicate 3, time 606 sec): 36.1527
remaining [B] ([1]; Replicate 3, time 606 sec, [B]0=250): 181.605
second-order ([1]; Replicate 3, time 606 sec, second-order plot value): 0.005103
remaining [B] ([1]; time 0 sec, [B]0 = 250, replicates 1-3): 244.616 and 236.007 and 232.398
second-order ([1]; time 0 sec, replicates 1-3): 0.000777 and 0.0002138 and 0.0005945
remaining [B] ([1]; time 30 sec, [B]0 = 250, replicates 1-3): 239.016 and 232.843 and 226.134
second-order ([1]; time 30 sec, replicates 1-3): 0.001109 and 0.0004543 and 0.0007469
remaining [B] ([1]; time 60 sec, [B]0 = 250, replicates 1-3): 231.981 and 229.623 and 220.975
second-order ([1]; time 60 sec, replicates 1-3): 0.00141 and 0.0007862 and 0.0009101
remaining [B] ([1]; time 91 sec, [B]0 = 250, replicates 1-3): 228.545 and 226.744 and 217.517
second-order ([1]; time 91 sec, replicates 1-3): 0.001628 and 0.0009622 and 0.001063
remaining [B] ([1]; time 121 sec, [B]0 = 250, replicates 1-3): 224.298 and 223.153 and 210.771
second-order ([1]; time 121 sec, replicates 1-3): 0.002097 and 0.001194 and 0.001265
remaining [B] ([1]; time 151 sec, [B]0 = 250, replicates 1-3): 215.18 and 221.016 and 204.96
second-order ([1]; time 151 sec, replicates 1-3): 0.002555 and 0.001754 and 0.001392
remaining [B] ([1]; time 182 sec, [B]0 = 250, replicates 1-3): 211.366 and 218.251 and 202.608
second-order ([1]; time 182 sec, replicates 1-3): 0.002758 and 0.002017 and 0.001562
remaining [B] ([1]; time 212 sec, [B]0 = 250, replicates 1-3): 208.552 and 215.829 and 199.773
second-order ([1]; time 212 sec, replicates 1-3): 0.003017 and 0.002225 and 0.001719
remaining [B] ([1]; time 242 sec, [B]0 = 250, replicates 1-3): 206.279 and 213.378 and 197.222
second-order ([1]; time 242 sec, replicates 1-3): 0.003266 and 0.002402 and 0.001885
remaining [B] ([1]; time 273 sec, [B]0 = 250, replicates 1-3): 203.276 and 211.041 and 194.671
second-order ([1]; time 273 sec, replicates 1-3): 0.003532 and 0.002649 and 0.002052
remaining [B] ([1]; time 303 sec, [B]0 = 250, replicates 1-3): 200.625 and 209.074 and 192.148
second-order ([1]; time 303 sec, replicates 1-3): 0.003812 and 0.002882 and 0.002197
remaining [B] ([1]; time 333 sec, [B]0 = 250, replicates 1-3): 197.649 and 207.193 and 190.108
second-order ([1]; time 333 sec, replicates 1-3): 0.004053 and 0.00316 and 0.002343
remaining [B] ([1]; time 364 sec, [B]0 = 250, replicates 1-3): 195.376 and 205.141 and 187.925
second-order ([1]; time 364 sec, replicates 1-3): 0.004327 and 0.003387 and 0.002508
remaining [B] ([1]; time 394 sec, [B]0 = 250, replicates 1-3): 193.158 and 203.203 and 186.139
second-order ([1]; time 394 sec, replicates 1-3): 0.004565 and 0.003621 and 0.002671
remaining [B] ([1]; time 424 sec, [B]0 = 250, replicates 1-3): 190.588 and 201.351 and 184.155
second-order ([1]; time 424 sec, replicates 1-3): 0.004845 and 0.003909 and 0.002833
remaining [B] ([1]; time 454 sec, [B]0 = 250, replicates 1-3): 188.694 and 199.783 and 182.426
second-order ([1]; time 454 sec, replicates 1-3): 0.005104 and 0.004135 and 0.002976
remaining [B] ([1]; time 485 sec, [B]0 = 250, replicates 1-3): 186.908 and 198.016 and 181.378
second-order ([1]; time 485 sec, replicates 1-3): 0.005268 and 0.00436 and 0.003143
remaining [B] ([1]; time 515 sec, [B]0 = 250, replicates 1-3): 185.014 and 196.591 and 179.79
second-order ([1]; time 515 sec, replicates 1-3): 0.005529 and 0.004611 and 0.003284
remaining [B] ([1]; time 545 sec, [B]0 = 250, replicates 1-3): 184.094 and 195.166 and 178.713
second-order ([1]; time 545 sec, replicates 1-3): 0.005715 and 0.004739 and 0.003429
remaining [B] ([2]; Replicate 1, 723 sec, [B]0 = 250): 246.895
remaining [B] ([2]; Replicate 1, 903 sec, [B]0 = 250): 246.517
remaining [B] ([2]; Replicate 1, 1084 sec, [B]0 = 250): 246.063
remaining [B] ([2]; Replicate 1, 1265 sec, [B]0 = 250): 245.71
remaining [B] ([2]; Replicate 1, 1445 sec, [B]0 = 250): 245.231
remaining [B] ([2]; Replicate 1, 1626 sec, [B]0 = 250): 244.866
remaining [B] ([2]; Replicate 1, 1806 sec, [B]0 = 250): 244.513
remaining [B] ([2]; Replicate 1, 1988 sec, [B]0 = 250): 243.833
remaining [B] ([2]; Replicate 1, 2168 sec, [B]0 = 250): 243.543
remaining [B] ([2]; Replicate 1, 2349 sec, [B]0 = 250): 242.9
remaining [B] ([2]; Replicate 1, 2530 sec, [B]0 = 250): 242.61
remaining [B] ([2]; Replicate 1, 2710 sec, [B]0 = 250): 242.169
remaining [B] ([2]; Replicate 2, 542 sec, [B]0=250): 248.022
remaining [B] ([2]; Replicate 2, 723 sec, [B]0=250): 247.165
remaining [B] ([2]; Replicate 2, 903 sec, [B]0=250): 246.925
remaining [B] ([2]; Replicate 2, 1084 sec, [B]0=250): 246.522
remaining [B] ([2]; Replicate 2, 1265 sec, [B]0=250): 246.258
remaining [B] ([2]; Replicate 2, 1445 sec, [B]0=250): 245.88
remaining [B] ([2]; Replicate 2, 1626 sec, [B]0=250): 245.262
remaining [B] ([2]; Replicate 2, 1806 sec, [B]0=250): 245.073
remaining [B] ([2]; Replicate 2, 1988 sec, [B]0=250): 244.304
remaining [B] ([2]; Replicate 2, 2168 sec, [B]0=250): 244.191
remaining [B] ([2]; Replicate 2, 2349 sec, [B]0=250): 243.649
remaining [B] ([2]; Replicate 2, 2530 sec, [B]0=250): 243.511
remaining [B] ([2]; Replicate 2, 2710 sec, [B]0=250): 243.032
remaining [B] ([2]; Replicate 3, 723 sec, [B]0=250): 248.495
remaining [B] ([2]; Replicate 3, 903 sec, [B]0=250): 247.89
remaining [B] ([2]; Replicate 3, 1084 sec, [B]0=250): 247.373
remaining [B] ([2]; Replicate 3, 1265 sec, [B]0=250): 246.731
remaining [B] ([2]; Replicate 3, 1445 sec, [B]0=250): 246.365
remaining [B] ([2]; Replicate 3, 1626 sec, [B]0=250): 245.899
remaining [B] ([2]; Replicate 3, 1806 sec, [B]0=250): 245.521
remaining [B] ([2]; Replicate 3, 1988 sec, [B]0=250): 245.08
remaining [B] ([2]; Replicate 3, 2168 sec, [B]0=250): 244.563
remaining [B] ([2]; Replicate 3, 2349 sec, [B]0=250): 244.16
remaining [B] ([2]; Replicate 3, 2530 sec, [B]0=250): 243.744
remaining [B] ([2]; Replicate 3, 2710 sec, [B]0=250): 243.505
second-order [2, 3]: 0.0003098 and 0.0002905 and 0.000349
remaining [B] [2, 3]: 243.089 and 241.779 and 242.654
second-order [2, 4]: 0.0003222 and 0.0003146 and 0.0003655
remaining [B] [2, 4]: 242.547 and 241.413 and 242.377
second-order [2, 5]: 0.0003374 and 0.0003303 and 0.0003793
remaining [B] [2, 5]: 242.194 and 241.111 and 242.036
second-order [2, 6]: 0.0003624 and 0.0003513 and 0.0004046
remaining [B] [2, 6]: 241.728 and 240.556 and 241.482
second-order [2, 7]: 0.0003733 and 0.000365 and 0.0004313
remaining [B] [2, 7]: 241.426
second-order ([2]; Time 3794 sec, [B]0 = 250, Replicates 1-3): 0.0003951 and 0.0003787 and 0.000436
second-order ([2]; Time 3974 sec, [B]0 = 250, Replicates 1-3): 0.0004043 and 0.0004098 and 0.0004713
second-order ([2]; Time 4155 sec, [B]0 = 250, Replicates 1-3): 0.0004287 and 0.0004139 and 0.0004754
second-order ([2]; Time 4336 sec, [B]0 = 250, Replicates 1-3): 0.0004451 and 0.0004267 and 0.000504
second-order ([2]; Time 4516 sec, [B]0 = 250, Replicates 1-3): 0.0004586 and 0.0004477 and 0.0005214
second-order ([2]; Time 4697 sec, [B]0 = 250, Replicates 1-3): 0.000471 and 0.0004671 and 0.0005431
second-order ([2]; Time 4878 sec, [B]0 = 250, Replicates 1-3): 0.000487 and 0.0004831 and 0.0005503
second-order ([2]; Time 5058 sec, [B]0 = 250, Replicates 1-3): 0.0005055 and 0.0005004 and 0.0005698
second-order ([2]; Time 5239 sec, [B]0 = 250, Replicates 1-3): 0.0005247 and 0.0005046 and 0.0005919
second-order ([2]; Time 5419 sec, [B]0 = 250, Replicates 1-3): 0.000547 and 0.000531 and 0.0006054
second-order ([2]; Time 5600 sec, [B]0 = 250, Replicates 1-3): 0.0005568 and 0.0005491 and 0.0006296
second-order ([2]; Time 5781 sec, [B]0 = 250, Replicates 1-3): 0.0005744 and 0.0005674 and 0.0006477
second-order ([2]; Time 5961 sec, [B]0 = 250, Replicates 1-3): 0.0005953 and 0.0005931 and 0.0006685

From PMC12669040, “Tumour-specific STING agonist synthesis via a two-component prodrug system” (Nature Chemistry, 2025)
